The source of these data is publication PMC12383972, “Oral Pharmacokinetic Evaluation of a Microemulsion-Based Delivery System for Novel A190 Prodrugs” (Biomolecules, 2025).

Values after ≈ are worked out from the molar mass of the structure shown. Where two headings read alike, the source gives them in different places.

The nature of data set [1]: Chemical hydrolysis stability in PBS pH 7.4. The note with it: PBS pH 7.4, 37 °C, 100 μM. It counts as physicochemical. The procedure:
Chemical hydrolysis stability of each prodrug was assessed in a physiological pH 7.4 using phosphate buffered saline solution (PBS) as previously described. After preincubation of PBS solution at 37 °C for 5 min, stock solution of each prodrug (10 mM) was spiked to a final concentration of 100 μM. The samples were then incubated at 37 °C on a temperature-controlled orbital shaker operating at 200 rpm. At predetermined time points, 200 μL of incubation mixture was withdrawn and quenched with 100 μL of internal standard (0.5 μg/mL of fenofibric acid) and 700 μL ice cold ACN. Drug concentration was analyzed using HPLC-UV method as described earlier to assess the amount of prodrug recovered compared to the starting timepoint.

Another data set deals with HepG2 cells. Briefly: MTT cell viability assay, HepG2. It counts as cell-based, human. The note with it: HepG2, 50 µM, 24 h and 48 h. On the procedure: (§1) To evaluate the cytotoxicity of free A190-PD-60 (in 0.2% DMSO in DMEM), vehicle microemulsion, and A190-PD-60-ME against Caco-2 cells and HepG2 cells, an MTT assay using 3-(4,5-dimethylthiazol-2-yl)-2,5-diphenyltetrazolium bromide was performed as described before. Caco-2 and HepG2 cells were first cultured in DMEM supplemented with 10% FBS, penicillin (100 U/mL), and streptomycin (100 μg/mL) at 37 °C in a 5% CO2 humidified incubator. Upon reaching confluence, cells were trypsinized and seeded at 10 × 10^4 cells/well in 96-well plates. After 48 h, the medium was replaced with fresh dilutions of free A190-PD-60, vehicle microemulsion, or A190-PD-60-ME (0.1–50 µM) in DMEM. Controls included untreated cells and cells treated with 0.2% DMSO in DMEM. Following 24 h and 48 h incubation, the medium was replaced with 100 µL of MTT solution (5 mg/mL in PBS) and incubated for 3 h. The supernatant was then removed, and formazan crystals were dissolved in 100 µL DMSO. Absorbance was measured at 540 nm, and cell viability (%) was calculated as (OD of samples/OD of control) × 100.
(In general: Tetrazolium dyes change colour on reduction, which living cells bring about.)

A short description of the next data set: Aqueous solubility. In kind it is physicochemical. The note with it: thermodynamic from solid; deionized water, 25 °C, 48 h equilibrium. The procedure: Aqueous solubility of each prodrug was assessed using deionized water. In brief, an excess amount of each prodrug was placed in a stoppered vial containing 1 mL of water. Each sample was vortexed and kept in an isothermal shaker maintained at 25 ± 1.0 °C to reach equilibrium for 48 h. The resulting mixture was centrifuged at 4000× g for 15 min, and the supernatant was collected and diluted with ACN followed by filtration with a 0.22 μm filter. The drug concentrations for all prodrugs were measured using HPLC-UV. Chromatographic separation was achieved using an Agilent Pursuit XRs 5 C18 column (250 × 4.6 mm) with a UV-detector system. The mobile phase consisted of ACN and water, both containing 0.1% trifluoroacetic acid in a ratio of 80:20 v/v, with a flow rate of 1 mL/min at 25 °C.

The nature of data set [2]: Bioconversion of prodrugs in rat plasma. The note with it: 100 μM prodrug, 37 °C. In kind it is in vitro ADME. On the procedure:
(§2) Conversion of the respective prodrugs to the parent drug A190 was assessed in pooled rat and rabbit plasma. Following pre-incubation of plasma at 37 °C for 5 min, stock solution of each prodrug (10 mM) was spiked into the plasma to reach a final concentration of 100 μM. The mixture was incubated at 37 °C, 200 rpm on a temperature-controlled orbital shaker. Incubation mixture (200 μL) was withdrawn at pre-determined time points, and the reaction was terminated by the addition of 700 μL of ice cold ACN. 100 μL of internal standard (0.5 μg/mL of fenofibric acid) was then spiked, and the samples were vortexed and centrifuged at 10,000× g for 10 min. The resulting supernatants were collected and filtered using PTFE filters and injected into HPLC-UV system. The LC system was a reverse phased Shimadzu Prominence (Kyoto, Japan) using a Pursuit 5 C18 column. Isocratic separation was performed with mobile phase consisting of ACN/water (80/20 v/v) containing 0.1% trifluoroacetic acid and monitored at a UV detection of 227 nm.

For another data set, the system named is Caco-2 cells. In words: MTT cell viability assay, Caco-2. The note with it: Caco-2, 50 µM, 24 h and 48 h. It counts as cell-based, human. The procedure: as §1
Data set [3] in a line: Solubility in microemulsion excipients. The note with it: for solubility at 72 h: thermodynamic from solid, 25 °C. It counts as physicochemical. On the procedure:
Enhancement of drug solubility is the primary factor considered when evaluating ME components. To determine the solubility of A190-PD-60, an excess amount of A190-PD-60 was added to 1 g of each of the tested oils, surfactants and co-surfactants in glass vials with stoppers. A190-PD-60 and excipients were mixed together and vortexed. The mixtures were kept at a temperature of 25 ± 1.0 °C in an isothermal shaker for 72 h to achieve equilibrium. The mixtures were then centrifuged at 10,000× g for 15 min. The resulting supernatants were filtered using […] membrane filters and concentrations of A190-PD-60 in the filtrates were quantified via HPLC-UV analysis. Oils, emulsifiers, and co-emulsifiers with the highest solubilities were chosen for further miscibility analysis. For this, 2 mL of the selected excipients were mixed and vortexed for 10 min, then allowed to equilibrate for 1 h. The resulting mixtures were visually inspected for transparency and phase separation.

A short description of data set [4]: BCS classification from solubility and PAMPA permeability. The note with it: predicted from low solubility and low permeability.
A short description of data set [5]: Bioconversion of prodrugs in rabbit plasma. In kind it is in vitro ADME. The note with it: 100 μM prodrug, 37 °C. The procedure:
as §2

Consider `Cc1cc(CNc2cccc(C(=O)OCc3oc(=O)oc3C)c2)ccc1OCc1ccc(F)cc1` [A190-PD-60, (5-Methyl-2-oxo-1,3-dioxol-4-yl)methyl3-((4-((4-Fluorobenzyl)oxy)-3-methylbenzyl)amino)benzoate], for which the “drug remaining at 2 h” value in data set [1] was “over 80%”. Further, the “cytotoxicity at highest tested concentration” value with HepG2 cells and in the data set with Caco-2 cells was “no significant cytotoxicity” throughout. In the data set “Aqueous solubility”, the solubility at 48 h came to 1.4 ± 0.23 µg/mL (≈ 0.00293 mM). For the same compound, the half-life at 100 μM was 18 min in data set [2] (pooled rat plasma) and 30 min in data set [5] (pooled rabbit plasma). Besides, the “Prodrug bioconversion half-life (Rat plasma)” value in data set [2] (Figure 3E) came out at 18 min. Further, the “solubility in Capryol 90 relative to Maisine oil” value in data set [3] is given as 13.9 fold. Further, the “solubility in Capryol 90 relative to oleic acid” value in data set [3] came out at 4.8 fold. In addition, the solubility at 72 h in data set [3] (Capryol 90, oil or lipid, read-out: Solubility in Capryol 90) turned out to be 4450 ± 310 µg/mL (≈ 9.32 mM); in data set [3] (Cremophor EL, organic solvent or mixture, read-out: Solubility in Cremophor EL), 9050 ± 40 µg/mL (≈ 19 mM); in data set [3] (Labrafil M, oil or lipid, read-out: Solubility in Labrafil M) it was 6580 ± 190 µg/mL (≈ 13.8 mM); in data set [3] (Lauroglycol FCC, oil or lipid, read-out: Solubility in Lauroglycol FCC), 4590 ± 50 µg/mL (≈ 9.61 mM); in data set [3] (Maisine oil, oil or lipid, read-out: Solubility in Maisine oil), 320 ± 300 µg/mL (≈ 0.67 mM); in data set [3] (Oleic acid, oil or lipid, read-out: Solubility in Oleic acid), 920 ± 40 µg/mL (≈ 1.93 mM). Moreover, the solubility at 72 h in data set [3] (Peceol, oil or lipid, read-out: Solubility in Peceol) was determined as 2170 ± 70 µg/mL (≈ 4.54 mM); in data set [3] (Polypropylene glycol, organic solvent or mixture, read-out: Solubility in Polypropylene glycol), 3790 ± 620 µg/mL (≈ 7.94 mM); in data set [3] (Transcutol HP, organic solvent or mixture, read-out: Solubility in Transcutol HP) it was 14100 ± 140 µg/mL (≈ 29.5 mM); in data set [3] (Tween 80, organic solvent or mixture, read-out: Solubility in Tween 80), 9170 ± 70 µg/mL (≈ 19.2 mM). Besides, in data set [4], the BCS class result is “BCS Class IV”. Besides, the “Prodrug bioconversion half-life (Rabbit plasma)” value in data set [5] (Figure 3E) came to 30 min.

The solubility is the concentration that dissolves in the medium under given conditions. One may read the half-life as the time needed for the level to fall by half in the phase considered.
